US9512105B2, “1-substituted 4-arylpiperazine as kappa opioid receptor antagonists” (RESEARCH TRIANGLE INSTITUTE, priority 2011, dated 2016)
Structures can show the parent of a compound that is named as a salt.

Columns and labels:
[1] = biological target: T1, cloned human μ-opioid receptor (Homo sapiens, UniProt P35372); test: Inhibition of DAMGO-stimulated [35S]GTPγS binding; format: biochemical; settings: antagonism of DAMGO-stimulated [35S]GTPγS binding, cloned human μ receptor; for Kb: read-out: μ, DAMGO Ke
T1 construct: expressed in transfected cells
T1 sequence (P35372 whole entry): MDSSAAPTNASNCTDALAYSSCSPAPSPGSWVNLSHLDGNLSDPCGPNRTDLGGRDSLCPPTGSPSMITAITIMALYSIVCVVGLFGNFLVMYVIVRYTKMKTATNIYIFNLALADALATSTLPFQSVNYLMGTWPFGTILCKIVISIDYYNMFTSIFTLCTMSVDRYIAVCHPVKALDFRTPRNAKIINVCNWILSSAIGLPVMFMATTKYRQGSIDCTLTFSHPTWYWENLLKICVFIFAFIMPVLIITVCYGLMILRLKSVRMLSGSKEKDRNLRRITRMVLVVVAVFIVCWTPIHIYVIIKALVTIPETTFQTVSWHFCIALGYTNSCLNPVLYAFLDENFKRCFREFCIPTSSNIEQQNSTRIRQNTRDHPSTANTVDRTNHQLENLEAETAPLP

[2] = biological target: T2, cloned human δ-opioid receptor (Homo sapiens, UniProt P41143); test: Inhibition of DPDPE-stimulated [35S]GTPγS binding; format: biochemical; settings: antagonism of DPDPE-stimulated [35S]GTPγS binding, cloned human δ receptor; for Kb: read-out: δ, DPDPE Ke
T2 construct: expressed in transfected cells
T2 sequence (P41143 whole entry): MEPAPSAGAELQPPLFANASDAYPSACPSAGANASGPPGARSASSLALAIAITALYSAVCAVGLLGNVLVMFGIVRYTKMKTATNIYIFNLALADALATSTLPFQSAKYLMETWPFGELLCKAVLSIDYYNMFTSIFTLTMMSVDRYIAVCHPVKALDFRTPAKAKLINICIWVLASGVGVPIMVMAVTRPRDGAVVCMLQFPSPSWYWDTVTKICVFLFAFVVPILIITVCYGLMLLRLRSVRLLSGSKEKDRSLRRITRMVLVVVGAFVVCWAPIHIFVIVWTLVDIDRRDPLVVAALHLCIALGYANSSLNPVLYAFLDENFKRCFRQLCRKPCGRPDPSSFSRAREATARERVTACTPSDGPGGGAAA

[3] = biological target: T3, cloned human κ-opioid receptor (Homo sapiens, UniProt P41145); test: Inhibition of U69,593-stimulated [35S]GTPγS binding; format: biochemical; settings: for Kb / κ, U69,593 Ke: antagonism of U69,593-stimulated [35S]GTPγS binding, cloned human κ receptor; for Kb: read-out: κ, U69,593 Ke; for δ/κ / μ/κ: ratio of Ke values; for δ/κ: selectivity for κ relative to δ; for μ/κ: selectivity for κ relative to μ; for efficacy for the κ opioid receptor in words: [35S]GTPγS in vitro functional assay
T3 construct: expressed in transfected cells
T3 sequence (P41145 whole entry): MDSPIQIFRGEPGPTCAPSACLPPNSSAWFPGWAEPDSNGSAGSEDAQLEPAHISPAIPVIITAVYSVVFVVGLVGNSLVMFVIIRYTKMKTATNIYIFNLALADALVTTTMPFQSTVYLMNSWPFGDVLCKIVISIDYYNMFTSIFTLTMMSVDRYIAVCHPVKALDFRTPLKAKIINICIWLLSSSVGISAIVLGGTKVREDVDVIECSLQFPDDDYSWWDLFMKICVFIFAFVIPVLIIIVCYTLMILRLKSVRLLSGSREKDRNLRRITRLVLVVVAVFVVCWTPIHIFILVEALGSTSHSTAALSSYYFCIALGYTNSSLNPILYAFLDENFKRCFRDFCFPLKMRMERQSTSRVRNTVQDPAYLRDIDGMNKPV

Row | SMILES | Kb [1] | Kb [2] | Kb [3] | δ/κ [3] | μ/κ [3] | melting point | δ/κ ([3]; Dihydrochloride) | efficacy for the κ opioid receptor in words [3] | μ, DAMGO Ke [1] | δ, DPDPE Ke [2] | κ, U69,593 Ke [3]
1 | CC(C)[C@@H](CN1CCN(c2cccc(O)c2)[C@@H](C)C1)NC(=O)c1ccc(Oc2cccc(Br)c2)cc1.Cl.Cl [Compound 19d, 4-(3-Bromophenoxy)-N-[(1S)-1-{[(3S)-4-(3-hydroxyphenyl)-3-methylpiperazin-1-yl]methyl}-2-methylpropyl]benzamide Dihydrochloride] | 17 ± 6.3 nM | 42 ± 19 nM | 0.48 ± 0.02 nM | 88 | 35 | 106 to 109 °C | – | – | – | – | –
2 | Cc1cccc(Oc2ccc(C(=O)N[C@H](CN3CCN(c4cccc(O)c4)[C@@H](C)C3)C(C)C)cc2C)c1.Cl.Cl [Compound 19g, N-[(2S)-1-[(3S)-4-(3-Hydroxyphenyl)-3-methylpiperazin-1-yl]-3-methylbutan-2-yl]-3-methyl-4-(3-methylphenoxy)benzamide Dihydrochloride] | 14.4 ± 3.9 nM | 21 ± 6 nM | 0.16 ± 0.03 nM | – | – | 124 to 130 °C | 131 | – | – | – | –
3 | CC(C)[C@@H](CN1CCN(c2cccc(O)c2)[C@@H](C)C1)NC(=O)c1ccc(Oc2ccccc2F)cc1.Cl.Cl [Compound 19a, 4-(2-Fluorophenoxy)-N-[(1S)-1-{[(3S)-4-(3-hydroxyphenyl)-3-methylpiperazin-1-yl]methyl}-2-methylpropyl]benzamide Dihydrochloride] | 21.1 ± 4 nM | 96 ± 18 nM | 0.76 ± 0.21 nM | 126 | 28 | 156 to 159 °C | – | high efficacy (low Ke values) | – | – | –
4 | COc1cc(Oc2cccc(C)c2)ccc1C(=O)N[C@H](CN1CCN(c2cccc(O)c2)[C@@H](C)C1)C(C)C.Cl.Cl [Compound 19k, N-[(1S)-1-{[(3S)-4-(3-Hydroxyphenyl)-3-methylpiperazin-1-yl]methyl}-2-methylpropyl]-2-methoxy-4-(3-methylphenoxy)benzamide Dihydrochloride] | 49 ± 14 nM | 63 ± 20 nM | 1.3 ± 0.03 nM | 48 | 38 | 99 to 102 °C | – | – | – | – | –
5 | CC(C)[C@@H](CN1CCN(c2cccc(O)c2)[C@@H](C)C1)NC(=O)c1ccc(Oc2cccc(O)c2)cc1.Cl.Cl [Compound 6i, N-(1S)-1-{[(3S)-4-(3-Hydroxyphenyl)-3-methylpiperazin-1-yl]methyl}-2-methylpropyl-4-(3-hydroxyphenoxy)benzamide Dihydrochloride] | – | – | – | 338 | 37 | – | – | – | 69 ± 14 nM | 625 ± 121 nM | 1.85 ± 0.51 nM
6 | CC(C)[C@@H](CN1CCN(c2cccc(O)c2)[C@@H](C)C1)NC(=O)c1ccc(Oc2ccccc2)cc1.Cl.Cl [Compound 6a, N-(1S)-1-{[(3S)-4-(3-Hydroxyphenyl)-3-methylpiperazin-1-yl]methyl}-2-methylpropyl-4-phenoxybenzamide Dihydrochloride] | – | – | – | – | – | – | – | high efficacy (low Ke values) | 51 ± 14.9 nM | 570 ± 79 nM | 0.85 ± 0.35 nM
7 | Cc1ccc(Oc2ccc(C(=O)N[C@H](CN3CCN(c4cccc(O)c4)[C@@H](C)C3)C(C)C)cc2)cc1.Cl.Cl [Compound 6b, N-(1S)-1-{[(3S)-4-(3-Hydroxyphenyl)-3-methylpiperazin-1-yl]methyl}-2-methylpropyl-4-(4-methylphenoxy)benzamide Dihydrochloride] | – | – | – | 275 | 29 | – | – | high efficacy (low Ke values) | 20 ± 6 nM | 188 ± 33 nM | 0.69 ± 0.25 nM
8 | COc1cccc(Oc2ccc(C(=O)N[C@H](CN3CCN(c4cccc(O)c4)[C@@H](C)C3)C(C)C)cc2)c1.Cl.Cl [Compound 6f, N-(1S)-1-{[(3S)-4-(3-Hydroxyphenyl)-3-methylpiperazin-1-yl]methyl}-2-methylpropyl-4-(3-methoxyphenoxy)benzamide Dihydrochloride] | – | – | – | 2384 | 52 | – | – | high efficacy (low Ke values) | 33 ± 14 nM | 1502 ± 412 nM | 0.63 ± 0.13 nM
9 | CC(C)[C@@H](CN1CCN(c2cccc(O)c2)[C@@H](C)C1)NC(=O)c1ccc(Oc2cccc(F)c2)cc1.Cl.Cl [Compound 6c, N-(1S)-1-{[(3S)-4-(3-Hydroxyphenyl)-3-methylpiperazin-1-yl]methyl}-2-methylpropyl-4-(3-fluorophenoxy)benzamide Dihydrochloride] | – | – | – | 118 | 16 | – | – | – | 30 ± 9.0 nM | 174 ± 4.5 nM | 1.48 ± 0.51 nM
10 | COc1ccccc1Oc1ccc(C(=O)N[C@H](CN2CCN(c3cccc(O)c3)[C@@H](C)C2)C(C)C)cc1.Cl.Cl [Compound 6e, N-(1S)-1-{[(3S)-4-(3-Hydroxyphenyl)-3-methylpiperazin-1-yl]methyl}-2-methylpropyl-4-(2-methoxyphenoxy)benzamide Dihydrochloride] | – | – | – | 155 | 25 | – | – | – | 127 ± 78 nM | 869 ± 205 nM | 5.60 ± 1.41 nM
11 | Cc1cccc(Oc2ccc(C(=O)N[C@H](CN3CCN(c4cccc(O)c4)[C@@H](C)C3)C(C)C)cc2)c1.Cl.Cl [Compound 6d, N-(1S)-1-{[(3S)-4-(3-Hydroxyphenyl)-3-methylpiperazin-1-yl]methyl}-2-methylpropyl-4-(3-methylphenoxy)benzamide Dihydrochloride] | – | – | – | – | – | – | – | high efficacy (low Ke values) | 18 ± 6 nM | 62 ± 20 nM | 0.18 ± 0.06 nM
12 | CC(C)[C@@H](CN1CCN(c2cccc(O)c2)[C@@H](C)C1)NC(=O)c1ccc(Oc2ccccc2O)cc1.Cl.Cl [Compound 6h, N-(1S)-1-{[(3S)-4-(3-Hydroxyphenyl)-3-methylpiperazin-1-yl]methyl}-2-methylpropyl-4-(2-hydroxyphenoxy)benzamide Dihydrochloride] | – | – | – | – | – | – | – | – | 125 ± 10 nM | 960 ± 224 nM | 1.06 ± 0.26 nM
13 | CC(C)[C@@H](CN1CCN(c2cccc(O)c2)[C@@H](C)C1)NC(=O)c1ccc(Oc2ccc(O)cc2)cc1.Cl.Cl [Compound 6g, N-(1S)-1-{[(3S)-4-(3-Hydroxyphenyl)-3-methylpiperazin-1-yl]methyl}-2-methylpropyl-4-(4-hydroxyphenoxy)benzamide Dihydrochloride] | – | – | – | 1.97 | 8 | – | – | – | 71 ± 19 nM | 1696 ± 377 nM | 8.6 ± 3.7 nM
14 | Cc1ccc(O)c(Oc2ccc(C(=O)N[C@H](CN3CCN(c4cccc(O)c4)[C@@H](C)C3)C(C)C)cc2)c1.Cl.Cl [Compound 6m, 4-(2-Hydroxy-5-methylphenoxy)-N-[(2S)-1-[(3S)-4-(3-hydroxyphenyl)-3-methylpiperazin-1-yl]-3-methylbutan-2-yl]benzamide Dihydrochloride] | – | – | – | – | – | 179 to 183 °C | – | – | – | – | –
15 | COc1ccc(Oc2ccc(C(=O)N[C@H](CN3CCN(c4cccc(O)c4)[C@@H](C)C3)C(C)C)cc2)cc1.Cl.Cl [Compound 6j, N-(1S)-1-{[(3S)-4-(3-Hydroxyphenyl)-3-methylpiperazin-1-yl]methyl}-2-methylpropyl-4-(4-methoxyphenoxy)benzamide Dihydrochloride] | – | – | – | 2305 | 28 | – | – | high efficacy (low Ke values) | 17 ± 5 nM | 1383 ± 1049 nM | 0.60 ± 0.19 nM
16 | Cc1cc(C(=O)N[C@H](CN2CCN(c3cccc(O)c3)[C@@H](C)C2)C(C)C)ccc1Oc1ccccc1.Cl.Cl [Compound 6k, N-(1S)-1-{[(3S)-4-(3-Hydroxyphenyl)-3-methylpiperazin-1-yl]methyl}-2-methylpropyl-3-methyl-4-phenoxybenzamide Dihydrochloride] | – | – | – | 691 | 24 | – | – | high efficacy (low Ke values) | 15 ± 2 nM | 435 ± 143 nM | 0.63 ± 0.19 nM
17 | CC(C)[C@@H](CN1CCN(c2cccc(O)c2)[C@@H](C)C1)NC(=O)c1ccc(Oc2ccccc2O)c(Cl)c1.Cl.Cl [Compound 19n, 3-Chloro-4-(2-hydroxyphenoxy)-N-[(1)-1-{[(3S)-4-(3-hydroxyphenyl)-3-methylpiperazin-1-yl]methyl}-2-methylpropyl]benzamide Dihydrochloride] | – | – | – | 42 | 7 | – | – | – | 36 ± 9.2 nM | 210 ± 82 nM | 5.0 ± 0.82 nM
18 | CC(C)[C@@H](CN1CCN(c2cccc(O)c2)[C@@H](C)C1)NC(=O)c1ccc(Oc2ccccc2)cn1 [Compound 7a, N-(1S)-1-{[(3S)-4-(3-Hydroxyphenyl)-3-methylpiperazin-1-yl]methyl}-2-methylpropyl]-5-phenoxypyridine-2-carboxamide Trihydrochloride] | 101 ± 16 nM | 2020 ± 678 nM | 2.8 ± 1.2 nM | 723 | 36 | – | – | – | – | – | –
